System: hedgehog signaling pathway
Test: Gli-Luc Reporter Assay for Hh Pathway Inhibition (TMHh-12 cells, pTA-8×Gli-Luc reporter)
Type: cell-based, Mouse
Conditions: Mus musculus, TMHh12, Ag1.5 1 nM; read-out: Hedgehog Inhibition IC50 (nM) (Ag1.5 1 nM)
Protocol: Compounds of the present invention are assayed to evaluate their capacity to inhibit the hedgehog signaling pathway.
Gli-Luc Reporter Assay for Hh Pathway Inhibition
Mouse TM3 cells (obtained from American Type Culture Collection, ATCC, Manassas, Va.) are cultured in DMEM/F12 medium (Gibco/Invitrogen, Carlsbad, Calif.) supplemented with 5% heat inactivated horse serum and 2.5% FBS (Gibco/Invitrogen, Carlsbad, Calif.), 50 unit/mL penicillin and 50 μg/mL of streptomycin (Gibco/Invitrogen, Carlsbad, Calif.) at […] with 5% CO2 in air atmosphere. TM3 cells were transfected with pTA-8×Gli-Luc reporter plasmid. A stably transfected clone termed TMHh-12 was selected. […] To evaluate the IC50s of the antagonists, 8000 TMHh-12 cells were plated into each wells in 384-well plates with 50% DMEM/F12 medium supplemented with 2% FBS. After 12 hours, Hh pathway is activated by adding recombinant mouse Shh protein (expressed in E. coli, 8 μg/mL) or by adding Smo agonists. The testing compounds are added into plates with different concentrations. After 48 hours, the firefly luciferase luciferase activities are assayed with the Bright-Glo™ Luciferase Assay System (Promega, Madison, Wis.). The IC50 is measured when the effect of the compound reduces the luminescence signal by 50%. Toxicity of these compounds are evaluated in TM3 cells using CellTiter Glo assays or by TM3-Luc cell line (a TM3 cell stably transfected with a constitutive luciferase expression vector).

| IC50 [nM] | SMILES |
| --- | --- |
| 11 | Clc1ccc(Nc2cccc3c2CCN(Cc2cccnc2)C3)cc1-c1ncc(-c2ccccc2)[nH]1 [Compound 51] |
| 1.4 | O=C(O)C1(C(=O)N2CCc3c(cccc3Nc3ccc(Cl)c(-c4ncc(-c5ccccc5)[nH]4)c3)C2)CCC1 [Compound 69] |
| 101 | Cc1ccc(Nc2cccc3c2CCN(S(C)(=O)=O)C3)cc1-c1ccc(CC#N)cc1 [Compound 139] |
| 52 | Cc1ccc(Nc2cccc3c2CCN(S(C)(=O)=O)C3)cc1-c1ccc(C#N)nc1 [Compound 129] |
| > 10000 | Cc1ccc(Nc2cccc3c2CCN(S(C)(=O)=O)C3)cc1-c1ccc(-c2nnn[nH]2)cc1 [Compound 143] |
| 2940 | Cc1ccc(Nc2cccc3c2CCN(S(C)(=O)=O)C3)cc1-c1cccc(C(=O)N2CCCC2)c1 [Compound 140] |
| 0.1 | Cc1ccc(Nc2cccc3c2CCN(S(C)(=O)=O)C3)cc1C(=O)Nc1ccccc1 [Compound 159] |

Same assay, conditions: Mus musculus, TMHh12, enzymatic and cellular assays for the inhibition of hedgehog signaling pathways; read-out: IC50 Ranges

| IC50 [nM] | SMILES |
| --- | --- |
| 1 to 10 | COc1ccc(-c2cc(Nc3cccc4c3CCN([C@H]3CCS(=O)(=O)C3)C4)ccc2C)nn1 [Compound 322] |
| 1 to 10 | Cc1ccc(Nc2cccc3c2CCN(CCS(C)(=O)=O)C3)cc1-c1ccc(C#N)cn1 [Compound 245] |
| 1 to 10 | COc1ccc(-c2cc(Nc3cccc4c3CCN(S(C)(=O)=O)C4)ccc2C)nn1 [Compound 183] |
| 100 to 1000 | Cc1cc(C#N)ccc1-c1cccc(Nc2cccc3c2CCN(S(C)(=O)=O)C3)c1 [Compound 168] |
| 0.001 to 1 | Cc1ccc(Nc2cccc3c2CCN(S(C)(=O)=O)C3)cc1-c1ncccc1F [Compound 227] |
| 1 to 10 | Cc1ccc(Nc2cccc3c2CCN(S(C)(=O)=O)C3)cc1OCc1ccccc1 [Compound 130] |
| 10 to 100 | Cc1ccc(Nc2cccc3c2CCN(CC2(C)CC2)C3=O)cc1-c1nc2ccccc2[nH]1 [Compound 127] |
| 10 to 100 | Clc1ccc(Nc2cccc3c2CCN(Cc2cccnc2)C3)cc1-c1ncc(-c2ccccc2)[nH]1 [Compound 51] |
| 0.001 to 1 | COc1ccc(-c2cnc(-c3cc(Nc4cccc5c4CCN(S(C)(=O)=O)C5)ccc3C)[nH]2)cn1 [Compound 100] |
| 1 to 10 | O=C(O)C1(C(=O)N2CCc3c(cccc3Nc3ccc(Cl)c(-c4ncc(-c5ccccc5)[nH]4)c3)C2)CCC1 [Compound 69] |
| 1 to 10 | [O-][n+]1ccc(N2CCc3c(cccc3Nc3ccc(Cl)c(-c4ncc(-c5ccccc5)[nH]4)c3)C2)cc1 [Compound 49] |
| 1 to 10 | COc1cnc(-c2cc(Nc3cccc4c3CCN(C3CCS(=O)(=O)C3)C4)ccc2C)cn1 (stereo not drawn) [Compound 266] |
| 100 to 1000 | Cc1ccc(Nc2cccc3c2CCN(S(C)(=O)=O)C3)cc1-c1ccc(CC#N)cc1 [Compound 139] |
| 1 to 10 | Cc1ccc(Nc2cccc3c2CCN(CC(C)(C)O)C3)cc1C(=O)Nc1ccccc1 [Compound 222] |
| 1000 to 10000 | Cc1ccc(Nc2cccc3c2CCN(S(C)(=O)=O)C3)cc1-c1ccc(C(=O)NCC(O)CO)cc1 (stereo not drawn) [Compound 146] |
| 0.001 to 1 | CC(C)(CO)C(=O)N1CCc2c(cccc2Nc2ccc(Cl)c(-c3ncc(-c4ccccc4)[nH]3)c2)C1 [Compound 14] |
| 1 to 10 | [O-][S+]1CCC([N+]2([O-])CCc3c(cccc3Nc3ccc(Cl)c(-c4ncc(-c5ccccc5)[nH]4)c3)C2)CC1 (stereo not drawn) [Compound 26] |
| 0.001 to 1 | COc1ccc(NC(=O)c2cc(Nc3cccc4c3CCN(S(C)(=O)=O)C4)ccc2C)cc1 [Compound 161] |
| 0.001 to 1 | CCC(CC)N1CCC(N2CCc3c(cccc3Nc3ccc(Cl)c(-c4ncc(-c5ccccc5)[nH]4)c3)C2)CC1 [Compound 31] |
| 10 to 100 | Cc1ccc(Nc2cccc3c2CCN(CCS(C)(=O)=O)C3)nc1-c1ccccn1 [Compound 311] |
| 1 to 10 | CCOc1cnc(-c2nc(Nc3cccc4c3CCN(S(=O)(=O)CC)C4)ccc2C)cn1 [Compound 330] |
| 1 to 10 | CCOc1ccc(-c2cc(Nc3cccc4c3CCN([C@H]3CCS(=O)(=O)C3)C4)ccc2C)nn1 [Compound 340] |
| 1 to 10 | Clc1ccc(Nc2cccc3c2CCN(C2CCCCC2)C3)cc1-c1ncc(-c2ccccc2)[nH]1 [Compound 22] |
| 0.001 to 1 | [O-][S+]1CCC(N2CCc3c(cccc3Nc3ccc(Cl)c(-c4ncc(-c5ccccc5)[nH]4)c3)C2)CC1 (stereo not drawn) [Compound 12] |
| 10 to 100 | Cc1ccc(Nc2cccc3c2CCN(S(C)(=O)=O)C3)cc1-c1ccc(C#N)nc1 [Compound 129] |

| IC50 [nM] | SMILES |
| --- | --- |
| 100 to 1000 | Cc1ccc(Nc2cccc3c2CCN(S(C)(=O)=O)C3)cc1-c1ccc(CN(C)C)cc1 [Compound 108] |
| > 10000 | Cc1ccc(Nc2cccc3c2CCN(S(C)(=O)=O)C3)cc1-c1ccc(-c2nnn[nH]2)cc1 [Compound 143] |
| 0.001 to 1 | CC(C)N1CCC(N2CCc3c(cccc3Nc3ccc(Cl)c(-c4ncc(-c5ccccc5)[nH]4)c3)C2)CC1 [Compound 36] |
| 1 to 10 | Cc1ccc(Nc2cccc3c2CCN(S(C)(=O)=O)C3)cc1-c1ccc(C#N)cc1 [Compound 102] |
| 10 to 100 | Cc1ccc(Nc2cccc3c2CCN(S(C)(=O)=O)C3)cc1-c1cccc(F)n1 [Compound 218] |
| 10 to 100 | CCN1CCC(N2CCc3ccc(Nc4ccc(Cl)c(-c5nc(-c6ccccc6)c[nH]5)c4)cc3C2)CC1 [Compound 347] |
| 1 to 10 | Cc1ccc(Nc2cccc3c2CCN(CCC(F)(F)F)C3)cc1-c1ccc(C#N)cn1 [Compound 196] |
| 0.001 to 1 | Cc1ccc(Nc2cccc3c2CCN(C(=O)C(C)(CO)CO)C3)cc1-c1nc2ccccc2[nH]1 [Compound 70] |
| 0.001 to 1 | O=C(O)C1(C(=O)N2CCc3c(cccc3Nc3ccc(Cl)c(-c4ncc(-c5ccccc5)[nH]4)c3)C2)CC1 [Compound 68] |
| 100 to 1000 | Cc1ccc(Nc2cccc3c2CCN(S(C)(=O)=O)C3)cc1C(=O)N(CCO)c1ccccc1 [Compound 194] |
| 1 to 10 | CCS(=O)(=O)N1CCc2c(cccc2Nc2ccc(C)c(-c3ccc(OC)nn3)n2)C1 [Compound 318] |
| 0.001 to 1 | CCS(=O)(=O)N1CCc2c(ncnc2Nc2ccc(C)c(-c3ccc(F)cn3)c2)C1 [Compound 299] |
| 10 to 100 | Cc1ccc(-c2cc(Nc3nccc4c3CCN(S(C)(=O)=O)C4)ccc2C)nc1 [Compound 236] |
| 1000 to 10000 | Cc1ccc(Nc2cccc3c2CCN(S(C)(=O)=O)C3)cc1-c1cccc(C(=O)N2CCCC2)c1 [Compound 140] |
| 0.001 to 1 | CCS(=O)(=O)N1CCc2c(ncnc2Nc2ccc(C)c(-c3ccc(C)cn3)c2)C1 [Compound 293] |
| 0.001 to 1 | Cc1ccc(Nc2cccc3c2CCN(S(C)(=O)=O)C3)cc1-c1nc2cc(F)ccc2[nH]1 [Compound 61] |
| 10 to 100 | O=C(O)C(=O)N1CCc2c(cccc2Nc2ccc(Cl)c(-c3ncc(-c4ccccc4)[nH]3)c2)C1 [Compound 83] |
| 0.001 to 1 | Cc1ccc(Nc2cccc3c2CCN(S(C)(=O)=O)C3)cc1C(=O)Nc1ccccc1 [Compound 159] |
| 0.001 to 1 | CC1(CN2CCc3c(cccc3Nc3ccc(Cl)c(-c4ncc(-c5ccccc5)[nH]4)c3)C2)CC1 [Compound 95] |
| 1 to 10 | Cc1ccc(Nc2cccc3c2CCN(S(C)(=O)=O)C3)cc1-c1ncc(-c2cnc(N(C)C)nc2)[nH]1 [Compound 107] |
| 1 to 10 | CS(=O)(=O)N1CCc2c(cccc2Nc2cc(C(=O)Nc3ccccc3)c(Cl)cn2)C1 [Compound 203] |
| 10 to 100 | Cc1ccc(Nc2cccc3c2CCN(CC(F)(F)CO)C3)cc1-c1ccc(C#N)cc1 [Compound 112] |
| 1 to 10 | Cc1ccc(Nc2cccc3c2CCN(S(C)(=O)=O)C3)cc1-c1ncc(F)cn1 [Compound 220] |
| 0.001 to 1 | Cc1ccc(-c2nc(Nc3cccc4c3CCN(S(C)(=O)=O)C4)ccc2C)nc1 [Compound 274] |

Same assay, conditions: enzymatic and cellular assays for the inhibition of hedgehog signaling pathways; read-out: IC50 Ranges

| IC50 [nM] | SMILES |
| --- | --- |
| 0.001 to 1 | Cc1ccc(Nc2cccc3c2CCN([C@H]2CCS(=O)(=O)C2)C3)cc1-c1ncccc1F [Compound 345] |
| 1 to 10 | Cc1ccc(Nc2cccc3c2CCN(C2CCS(=O)(=O)CC2)C3)cc1-c1ncc(-c2cccnc2)[nH]1 [Compound 75] |
| 0.001 to 1 | [O-][S+]1CCC(N2CCc3c(cccc3Nc3ccc(Cl)c(-c4ncc(-c5ccccc5)[nH]4)c3)C2)CC1 (stereo not drawn) [Compound 1] |
| 0.001 to 1 | Cc1ccc(Nc2cccc3c2CCN(C2CCS(=O)(=O)C2)C3)cc1-c1ncc(F)cc1F (stereo not drawn) [Compound 338] |
